{
  "source": "ChEMBL document CHEMBL1153321",
  "about": "“Approaches to the simultaneous inactivation of metallo- and serine-beta-lactamases” (Bioorg Med Chem Lett, 2009)",
  "key": {"Enterobacter cloacae [1]": {"tested_on": "Enterobacter cloacae", "assay": "Activity of Enterobacter cloacae beta-lactamase OXA-1"}, "[2]": {"target": "Beta-lactamase TEM (Enterobacter cloacae) (UniProt Q6W9J1)", "sequence (Q6W9J1 as listed by the source)": "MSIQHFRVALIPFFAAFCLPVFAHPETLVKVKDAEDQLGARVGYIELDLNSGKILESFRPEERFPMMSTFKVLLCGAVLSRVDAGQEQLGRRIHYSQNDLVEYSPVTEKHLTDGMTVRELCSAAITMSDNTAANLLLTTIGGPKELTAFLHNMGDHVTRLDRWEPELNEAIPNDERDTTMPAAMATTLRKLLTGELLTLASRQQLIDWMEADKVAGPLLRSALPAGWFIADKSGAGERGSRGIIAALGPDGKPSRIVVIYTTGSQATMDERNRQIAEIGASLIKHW", "assay": "Ratio of Kcat to Km of Enterobacter cloacae beta-lactamase TEM-1"}, "Enterobacter cloacae [3]": {"tested_on": "Enterobacter cloacae", "assay": "Ratio of Kcat to Km of Enterobacter cloacae beta-lactamase OXA-1"}},
  "data": [
    {"smiles": "CC(=O)OCC1=C(C(=O)O)N2C(=O)/C(=N/O)[C@H]2S(=O)(=O)C1", "values": [
      {"measurement": "Km", "setting": "Enterobacter cloacae [1]", "value": "> 400", "unit": "µM"},
      {"measurement": "Ratio", "setting": "[2]", "value": 1690, "unit": "s⁻¹ M⁻¹"},
      {"measurement": "Ratio", "setting": "Enterobacter cloacae [3]", "value": 990, "unit": "s⁻¹ M⁻¹"}
    ]},
    {"smiles": "CC(=O)OCC1=C(C(=O)O)N2C(=O)[C@@H](NO)[C@H]2SC1", "values": [
      {"measurement": "Km", "setting": "Enterobacter cloacae [1]", "value": "> 400", "unit": "µM"},
      {"measurement": "Ratio", "setting": "[2]", "value": 2620, "unit": "s⁻¹ M⁻¹"},
      {"measurement": "Ratio", "setting": "Enterobacter cloacae [3]", "value": 66, "unit": "s⁻¹ M⁻¹"}
    ]},
    {"smiles": "CC(=O)OCC1=C(C(=O)O)N2C(=O)[C@@H](N(O)C(=O)Cc3ccccc3)[C@H]2SC1", "values": [
      {"measurement": "Km", "setting": "Enterobacter cloacae [1]", "value": 60, "unit": "µM"},
      {"measurement": "kcat", "setting": "Enterobacter cloacae [1]", "value": 0.121, "unit": "s⁻¹"},
      {"measurement": "Ratio", "setting": "[2]", "value": 2620, "unit": "s⁻¹ M⁻¹"},
      {"measurement": "Ratio", "setting": "Enterobacter cloacae [3]", "value": 2020, "unit": "s⁻¹ M⁻¹"}
    ]},
    {"smiles": "CC(=O)OCC1=C(C(=O)O)N2C(=O)[C@@H](NC(=O)Cc3cccs3)[C@H]2SC1", "values": [
      {"measurement": "Km", "setting": "Enterobacter cloacae [1]", "value": 13.9, "unit": "µM"},
      {"measurement": "kcat", "setting": "Enterobacter cloacae [1]", "value": 1.81, "unit": "s⁻¹"},
      {"measurement": "Ratio", "setting": "[2]", "value": 4.85, "unit": "×10⁵ /s/M"},
      {"measurement": "Ratio", "setting": "Enterobacter cloacae [3]", "value": 8.51, "unit": "×10⁴ /s/M"}
    ]},
    {"smiles": "CC(=O)OCC1=C(C(=O)O)N2C(=O)[C@@H](NC=O)[C@H]2SC1", "values": [
      {"measurement": "Km", "setting": "Enterobacter cloacae [1]", "value": 323, "unit": "µM"},
      {"measurement": "kcat", "setting": "Enterobacter cloacae [1]", "value": 1.02, "unit": "s⁻¹"},
      {"measurement": "Ratio", "setting": "[2]", "value": 6, "unit": "×10⁴ /s/M"},
      {"measurement": "Ratio", "setting": "Enterobacter cloacae [3]", "value": 3160, "unit": "s⁻¹ M⁻¹"}
    ]},
    {"smiles": "CC(=O)OCC1=C(C(=O)O)N2C(=O)/C(=N/O)[C@H]2SC1", "values": [
      {"measurement": "Km", "setting": "Enterobacter cloacae [1]", "value": "> 400", "unit": "µM"},
      {"measurement": "Ratio", "setting": "[2]", "value": 158, "unit": "s⁻¹ M⁻¹"},
      {"measurement": "Ratio", "setting": "Enterobacter cloacae [3]", "value": 88, "unit": "s⁻¹ M⁻¹"}
    ]},
    {"smiles": "CC1=C(C(=O)O)N2C(=O)/C(=N/O)[C@H]2S(=O)(=O)C1", "values": [
      {"measurement": "Ratio", "setting": "[2]", "value": 40, "unit": "s⁻¹ M⁻¹"}
    ]},
    {"smiles": "CC(=O)OCC1=C(C(=O)O)N2C(=O)[C@@H](N(O)C=O)[C@H]2SC1", "values": [
      {"measurement": "Km", "setting": "Enterobacter cloacae [1]", "value": "> 400", "unit": "µM"},
      {"measurement": "Ratio", "setting": "[2]", "value": 25, "unit": "s⁻¹ M⁻¹"},
      {"measurement": "Ratio", "setting": "Enterobacter cloacae [3]", "value": 75, "unit": "s⁻¹ M⁻¹"}
    ]}
  ]
}
